Data: patent US20230192895A1, “PHARMACOKINETIC & PHARMACODYNAMIC MODEL FOR DETERMINING EFFECTIVE DOSE OF ANTI-TICAGRELOR ANTIBODY” (PhaseBio Pharmaceuticals, Inc., priority 2021, published 2023)
Blank lines part the entries; values can stand above or below the molecule they belong to.

Key:
[1] = tested on: PB2452 binding to biotinylated ticagrelor; assay: Selectivity of PB2452 by competition binding with PB2452 to biotinylated ticagrelor; set-up: species or system human
Excerpt: The chemical starting point for the development of ticagrelor was adenosine triphosphate (ATP), and ticagrelor retains an adenosine-like core.

[2] = tested on: P2Y12 reactivity units (PRU); assay: animal or person
Excerpt: where Base refers to the baseline (prior to administration of Ticagrelor) value. Emaxi, EC50i, and the Hill coefficient (γ) are parameters to be estimated. The same structural model was used for PRU, VASP, and LTA.
The Emax parameter relating TICA to PRU (as well as VASP and LTA) was fixed to 90%. […] It is anticipated that this parameter value would be large^13 so it was fixed at a large value. […] This value was chosen based on literature^9, 14. Finally, fm was set equal to 0.30.
For parameters that were to be estimated, most of the prior distributions were uninformative or weakly informative.

[3] = Final population PK/PD model: PK parameters of TICA, TAM, PB2452 and complexes; format: in vivo, human
Procedure: A diagram of the model considered is in FIG. 1. Ticagrelor is dosed orally and passes through 2 transit compartments prior to entering the central compartment. […] PB2452 is dosed IV, and directly enters the central compartment. PB2452 can also diffuse into a peripheral compartment. […] In the model, it is assumed that the complexes are cleared at the same rate as PB2452. Additional compartments for the complex to enter where TICA and TAM return to circulation while PB2452 is removed from the system is also included in the model.
The expected result would be an increase in PRI/LTA/VASP to baseline (pre-ticagrelor administration) levels. Baseline PRU/LTA/VASP were added in the models observed value from the data for each subject. An ETA term was added to allow for potential measurement error. […] Astrand et al. (2019).
(§1) The PK parameters associated with this model are in Table 2. […] In the PK/PD model, the parameters associated with the PK of PB2452 (that are not associated with the relationship between PB2452/TICA/TAM) were fixed to these values.
(§2) To achieve improved fit to the study data, multiple adjustments were made to the model. […] These updates led to significant improvements in the fit of the model to the data.
The final step in model development was addition of significant covariates. […] Based on the covariate plots for the final model with the covariates included, no other covariates were added.

[4] = tested on: P2Y12 reactivity units (PRU); conditions: fixed in model, not estimated; cited from earlier work
[5] = tested on: P2Y12 receptor-induced platelet aggregation and P2Y12 receptor signaling; assay: Phase 1 trial: reversal of the antiplatelet effects of ticagrelor (PRU/LTA/VASP); format: in vivo, human
Procedure: This model was developed during the conduct of the first-in-human study and used to inform dosing decisions throughout the study. The model was then updated with final data from the trial and will be used to inform subsequent early-phase clinical trials being conducted.
The study had 10 cohorts of healthy volunteers.
Subjects in Cohorts 4-10 were pretreated with ticagrelor for 48 hours. The first dose of ticagrelor was an oral loading dose of 180 mg followed by 90 mg administered orally twice daily for 2 days.

[6] = Population PK model of PB2452 alone (two-compartment, Cohorts 1-3); format: in vivo, human
Procedure: Population PK and PK/PD analyses were carried out using NONMEM version 7.4, PDx-Pop version 5.2 and Intel Visual Fortran Compiler version 12 on Microsoft Windows 10 Professional.
The models described in the following sections are non-linear hierarchical models that were fit using Bayesian Markov Chain Monte-Carlo (MCMC) techniques. If θ and φj represent vectors of individual PK and PD parameters, respectively, then it was assumed that they follow distributions with population parameters Θ and Φ, respectively. The parameters Θ and Φ were then assigned prior distributions according to the prior information available. The Bayesian analysis involved the estimation of the joint distribution of all parameters conditional on the observed data: p(θ, φ, Θ, Φ|PK and PD data), where θ and φ denote collections of all individual specific PK and PD parameters, respectively. Generating random samples from the joint posterior distribution allows the marginal distribution of each parameter to be completely characterized. More details on Bayesian methods in general may be found in (Lunn, Best, Thomas, Wakefield, & Spiegelhalter, 2002).
The MU referencing technique was utilized in NONMEM (Bauer, 2019). In particular, MU_1 (for example) was set equal to THETA(1). Then a particular model parameter was set equal to EXP(MU_1+ETA(1)). So, THETA represents the population value of the parameter on the log-scale. This usually helps to improve the efficiency (speed of convergence, reduced autocorrelation) of the algorithms (MCMC, but also applies to other “advanced” algorithms available) utilized.
as §1

[7] = tested on: metabolism of TICA to TAM; assay: Final population PK/PD model: metabolism of TICA as a function of PB2452 concentration; format: in vivo, human; conditions: value is natural log of Emaxf
Excerpt: as §2

[8] = read-out: Kd (affinity of PB2452 for TICA and TAM); fixed in model, chosen based on literature; cited from earlier work
[9] = 6 g IV bolus, then 6 g over 4 h, then 6 g over 12 h, study subjects pretreated with ticagrelor
[10] = cohorts 4, 5 and 6 (1, 3, 9 g PB2452 over 30 minutes)

Molecule: CC1(C)C(C=C(Cl)Cl)C1C(=O)OC(C#N)c1ccc(F)c(Oc2ccccc2)c1 (stereo not shown) [cyfluthrin]
- Inhibition of PB2452 binding to biotinylated ticagrelor [1]: No inhibition

Molecule: CCCSc1nc(N[C@@H]2C[C@H]2c2ccc(F)c(F)c2)c2nnn([C@@H]3C[C@H](OCCO)[C@@H](O)[C@H]3O)c2n1 [TICA, (1S,2S,3R,5S)-3-[7-{[(1R,2S)-2-(3,4-difluorophenyl)cyclopropyl]amino}-5-(propylthio)-3H-[1,2,3]triazolo[4,5-d]pyrimidin-3-yl]-5-(2-ydroxyethoxy)cyclopentane-1,2-diol]
- EC50 ([2]; Homo sapiens, read-out: EC50 (Emax model relating uncomplexed analyte to PD measure)): > 20000 nM
- THETA1 final estimate; EC50 (nmol/L) = EXP(THETA1), EC50 for relating TICA to PRU ([2]; value is natural log of EC50 in nmol/L): 10.6
- Range of uncomplexed TICA expected based on the model ([3]; model-based concentration): less than 2000 nmol/L
- Metabolism for TICA to TAM corresponding to fm ([3]; when no PB2452 is present): about 23%
- Emax parameter relating TICA to PRU (as well as VASP and LTA) [4]: 90%

Molecule: CSCCNc1nc(SCCC(F)(F)F)nc2c1ncn2[C@@H]1O[C@H](COP(=O)(O)OP(=O)(O)C(Cl)(Cl)P(=O)(O)O)[C@@H](O)[C@H]1O [cangrelor]
- Inhibition of PB2452 binding to biotinylated ticagrelor [1]: No inhibition

Molecule: Nc1ncnc2c1ncn2[C@@H]1O[C@H](COP(=O)(O)OP(=O)(O)O)[C@@H](O)[C@H]1O [ADP, adenosine diphosphate]
- Inhibition of PB2452 binding to biotinylated ticagrelor [1]: No inhibition

Molecule: Nc1ncnc2c1ncn2[C@@H]1O[C@H](CO)[C@@H](O)[C@H]1O [adenosine]
- Inhibition of PB2452 binding to biotinylated ticagrelor [1]: No inhibition

Molecule: Nc1ncnc2c1ncn2[C@@H]1O[C@H](COP(=O)(O)OP(=O)(O)OP(=O)(O)O)[C@@H](O)[C@H]1O [ATP, adenosine triphosphate]
- Inhibition of PB2452 binding to biotinylated ticagrelor [1]: No inhibition

Molecule: CCCSc1nc(N[C@@H]2C[C@H]2c2ccc(F)c(F)c2)c2nnn([C@@H]3C[C@H](O)[C@@H](O)[C@H]3O)c2n1 [TAM]
- THETA9 final estimate; Emax2 = EXP(THETA9), Emax for relating TAM to PRU ([2]; value is natural log of Emax2): 0.0181

Molecule: CCCC(=O)Nc1ncnc2c1ncn2[C@@H]1O[C@@H]2COP(=O)(O)O[C@H]2[C@H]1OC(=O)CCC [bucladesine]
- Inhibition of PB2452 binding to biotinylated ticagrelor [1]: No inhibition

Molecule: O=C1CCc2cc(OCCCCc3nnnn3C3CCCCC3)ccc2N1 [cilostazol]
- Inhibition of PB2452 binding to biotinylated ticagrelor [1]: No inhibition

B1: PB2452: recombinant human IgG1λ monoclonal Fab antibody fragment that binds specifically to ticagrelor and TAM (antibody, listed as Homo sapiens)
heavy: QVQLQESGAEVKKPGSSVRVSCKASGGTFDSYSIHWVRQAPGQGLEWMGGIIPAFGTLSSAQDFQARVTISADKSTSTAYMELSGLRSEDTAVYYCARGSFDYYFWSASHPPNDALAIWGQGTLVTVSSASTKGPSVFPLAPSSKSTSGGTAALGCLVKDYFPEPVTVSWNSGALTSGVHTFPAVLQSSGLYSLSSVVTVPSSSLGTQTYICNVNHKPSNTKVDKRVEPKSCDK
light: QSVVTQPPSVSAAPGQKVTISCSGSNSDIGNNYVSWYQQLPGTAPKLLIYDNNKRPSGIPDRFSGSKSGTSATLAITGLQAGDEADYYCGTWLYDRAVGLFGGGTKVTVLGQPKAAPSVTLFPPSSEELQANKATLVCLISDFYPGAVTVAWKADSSPVKAGVETTTPSKQSNNKYAASSYLSLTPEQWKSHRSYSCQVTHEGSTVEKTVAPTECS
modifications: PB2452 VH with CH1; PB2452 VL with CL
- Time for which complete reversal was sustained [5, 9]: 20 to 24 h
- Time from infusion onset to complete reversal of the antiplatelet effects of ticagrelor [5, 9]: ≤ 5 min
- Effect of higher dose and prolonged infusion on PRU ([5]; cohort 7 and those that followed (18 g, bolus plus prolonged infusion)): prolonged the increase in PRU
- Effect on PRU after cessation of infusion ([5]; cohort 7 and those that followed, despite dose escalation): unexpected loss of effect was observed post-cessation of the drug infusion
- Duration of early effect on PRU before return to post-TICA levels [5, 10]: less than two
- Early effect on PRU [5, 10]: the PRU values were increased close to values before TICA was administered
- Central volume of distribution ([6]; IV, Cohorts 1-3): 2.86 L
- Clearance ([6]; IV, Cohorts 1-3): 1.88 L/h
- Half-life for the distribution phase ([6]; IV, Cohorts 1-3): 0.81 h
- Half-life for the elimination phase ([6]; IV, Cohorts 1-3): 6.68 h
- THETA3 final estimate; Q (L/hr) = EXP(THETA3) ([6]; value is natural log of Q in L/hr): −0.770
- THETA2 final estimate; V1 (L) = EXP(THETA2) ([6]; value is natural log of V1 in L): 1.05
- THETA4 final estimate; V2 (L) = EXP(THETA4) ([6]; value is natural log of V2 in L): 1.24
- THETA6 final estimate; Emaxf = EXP(THETA6), Emax for relating metabolism of TICA to PB2452 concentrations [7]: 2.98
- THETA4 final estimate; Ktr (hr^−1) = EXP(THETA4 + THETA13*(LOG(WT) − 4.35)) ([3]; value is natural log of Ktr, rate at which PB2452-TICA and PB2452-TAM complexes move through the added compartments): −1.22
- Kd [8]: 0.018 nM

The next lines start with the values.

- Inhibition of PB2452 binding to biotinylated ticagrelor [1]: No inhibition
Molecule: CC[C@H](C)C(=O)O[C@H]1C[C@@H](C)C=C2C=C[C@H](C)[C@H](CC[C@@H]3C[C@@H](O)CC(=O)O3)[C@H]21 [lovastatin]

- Inhibition of PB2452 binding to biotinylated ticagrelor [1]: No inhibition
Molecule: NS(=O)(=O)c1cc2c(cc1Cl)NC(C1CC3C=CC1C3)NS2(=O)=O (stereo not shown) [cyclothiazide]

- Inhibition of PB2452 binding to biotinylated ticagrelor [1]: No inhibition
Molecule: CC(=O)NC[C@H]1CN(c2ccc(N3CCOCC3)c(F)c2)C(=O)O1 [linezolid]

- Inhibition of PB2452 binding to biotinylated ticagrelor [1]: No inhibition
Molecule: CNC(=O)c1cnn(-c2nc(N)c3ncn([C@@H]4O[C@H](CO)[C@@H](O)[C@H]4O)c3n2)c1 [regadenoson]

- Inhibition of PB2452 binding to biotinylated ticagrelor [1]: No inhibition
Molecule: COC(=O)C1=C(C#N)NC(C)=C(C(=O)OC(C)C)C1c1cccc([N+](=O)[O-])c1 (stereo not shown) [nilvadipine]
